The text below walks through data of US9540338B2, “Substituted cinnamic acid amides for treating pain” (NIPPON ZOKI PHARMACEUTICAL CO., LTD., priority 2012, dated 2017).

The test system of one data set is Chung model rat. In words: Analgesic efficacy test (2): Chung model rat, neuropathic pain model (allodynia, von Frey filament). It is filed as in vivo, rats. The note with it: mean ± standard error. The procedure: An analgesic efficacy test was conducted using a Chung model rat, a neuropathic pain model. Nine-week old Wistar male rats were previously bred as an experimental animal, and a model rat was then prepared in accordance with the method of Kim and Chung (Pain, 50, 355-363, 1992). Specifically, left L5 spinal nerves of rats were exposed under anesthetization with pentobarbital (40 mg/kg, intraperitoneal administration), and firmly ligated with 5-0 silk yarn at L5 dorsal root ganglion peripheral side. The animals were placed in a transparent acrylic cage of which bottom was wire netted The measurement of allodynia was carried out using von Frey filament (manufactured by North Coast Medical Inc.) and a 50% reaction threshold was calculated according to an up-down method, in accordance with a method of Chaplan et al. (J. Neurosci. Method, 53, 55-63, 1994). The 50% reaction thresholds were measured twice before injury of the spinal nerve, and those animals of which thresholds were outside the standard were removed from the operation of spinal nerve injury. On or after 14 days from the spinal nerve injury, a 50% reaction threshold was measured, and those showing thresholds of 1 g or more and less than 4 g were used as experimental animal. The group was constituted by 7 or 8 rats per group so that an average of a 50% reaction threshold for each group would be nearly even.
A solution or suspension prepared by dissolving or suspending a compound of the present invention in a 0.5% (w/v) aqueous CMC-Na solution was orally administered as a test substance in a single dose. Also, a 0.5% (w/v) aqueous CMC-Na solution was administered in the same manner to the control group for nerve injury. The measurements of allodynia were carried out with the passage of time after administration, and a 50% reaction threshold (mean±standard error) of each group at action peak was calculated. In the test for significance difference, Bartlett's test was carried out in the comparison between multiple groups of the group administered with test substance with the control group for nerve injury. In the case of homoscedasticity, Dunnett's multiple comparison test of parametrics, and in the case of heteroscedasticity, Dunnett's multiple comparison test of non-parametrics were used. In all cases, significance difference was considered to be found at P<0.05 (indicated as “*” in the tables).

[1] abbreviates: oral 1 mg/kg, measurement point 90 minute (action peak).
Where [2] appears, read: oral 10 mg/kg, measurement point 90 minute (action peak).

Where a name gives a salt, the structure may show the parent alone. Marks after values point to notes of the source that are not given here.

In the case of `O=C(/C=C/c1ccccc1F)NCCc1ccccn1` (as salt: hydrochloride) [Compound 9, (E)-3-(2-Fluorophenyl)-N-[2-(2-pyridyl)ethyl]-2-propenamide hydrochloride], the melting point (as a rule, the temperature, or range, at which the solid turns liquid) is 86 to 87 °C.

With `Cl.O=C(/C=C/c1ccc(C(=O)O)cc1)NCCn1ccnc1`, the melting point was 237 to 238 °C.

The compound `C/C(=C\c1ccccc1F)C(=O)NCCCN1CC[S+]([O-])CC1.Cl` showed a melting point of 180 to 181 °C.

`O=C(/C=C/c1ccccc1F)NCCn1ccc2ccccc21` [Compound 41, (E)-3-(2-Fluorophenyl)-N-[2-(indol-1-yl)ethyl]-2-propenamide] showed a melting point of 96 to 98 °C.

Take `O=C(/C=C/c1ccccc1F)Nc1cccc(-c2ccn[nH]2)c1` [Compound 52, (E)-3-(2-Fluorophenyl)-N-[3-(2H-pyrazol-3-yl)phenyl]-2-propenamide]: the “50% Reaction Threshold, Group Administered with Test Substance, After Administration” value (“50% Reaction Threshold” for short) with Chung model rat (oral 1 mg/kg, measurement point 30 minute (action peak)) is recorded as 7.42 ± 1.14* g; with Chung model rat (oral 10 mg/kg, measurement point 30 minute (action peak)), 9.12 ± 2.00* g.

For `O=C(/C=C/c1cccc(F)c1F)NCCCN1CCOCC1` [Compound 27, (E)-3-(2,3-Difluorophenyl)-N-(3-morpholinopropyl)-2-propenamide], the melting point lay in the range of 97 to 99 °C.

Take `Cl.O=C(/C=C/c1ccccc1F)NCCCN1CCCCC1`: the melting point lay in the range of 166 to 167 °C.

In the case of `Nc1ccccc1CCNC(=O)/C=C/c1ccccc1F` [Compound 19, (E)-N-[2-(2-Aminophenyl)ethyl]-3-(2-fluorophenyl)-2-propenamide], the melting point lay in the range of 128 to 129 °C.

The compound `O=C(/C=C/c1ccccc1F)NCCN1CCCCCC1` [Compound 36, (E)-N-[(2-Azepan-1-yl)ethyl]-3-(2-fluorophenyl)-2-propenamide] displayed a melting point of 80 to 81 °C.

`O=C(/C=C/c1ccccc1F)NCCn1cnc2ccccc21` [Compound 22, (E)-N-[2-(Benzoimidazol-1-yl)ethyl]-3-(2-fluorophenyl)-2-propenamide] showed a melting point of 143 to 145 °C.

Turning to `O=C(O)CCNC(=O)/C=C/c1ccccc1F` [Compound 66, 3-{[(E)-3-(2-Fluorophenyl)-2-propenoyl]amino}propanoic acid], the melting point was 193 to 195 °C.

With `O=C(/C=C/c1ccc(C(F)(F)F)cc1F)NCCCN1CCOCC1` [Compound 32, (E)-3-(2-Fluoro-4-trifluoromethylphenyl)-N-(3-morpholinopropyl)-2-propenamide], the melting point was in the range of 102 to 103 °C.

The compound `Cl.O=C(/C=C/c1ccccc1F)NCCc1cccnc1` yielded a melting point of 116 to 117 °C.

`O=C(/C=C/c1c(F)cccc1F)NCCCN1CCOCC1` [Compound 30, (E)-3-(2,6-Difluorophenyl)-N-(3-morpholinopropyl)-2-propenamide]: the melting point is 75 to 76 °C.

In turn, `Cl.O=C(/C=C/c1ccccc1F)NCCCNC1CCCCC1` had a melting point of 227 to 228 °C.

Turning to `Cl.O=C(/C=C/c1ccccc1C(F)(F)F)NCCCN1CCOCC1`, the melting point lay within 197 to 198 °C.

On to `Cl.O=C(/C=C/c1ccccc1F)NCCCn1ccnc1` [Compound 45, (E)-3-(2-Fluorophenyl)-N-[3-(imidazol-1-yl)propyl]-2-propenamide hydrochloride], for which the “50% Reaction Threshold” value was 8.81 ± 1.05* g in the data set with Chung model rat (setting [1]) and 12.23 ± 1.10* g in the data set on Chung model rat (setting [2]).

In the case of `O=C(/C=C/c1ccccc1F)NCCn1cncn1` [Compound 39, (E)-3-(2-Fluorophenyl)-N-[2-([1,2,4]triazol-1-yl)ethyl]-2-propenamide dihydrochloride], the “50% Reaction Threshold” value is 3.55 ± 0.59 g in the data set with Chung model rat (setting [1]) and 4.05 ± 0.48* g in the data set with Chung model rat (setting [2]).

`O=C(/C=C/c1ccccc1C(=O)O)NCCn1ccnc1` [Compound 47, (E)-3-(2-Carboxyphenyl)-N-[(2-imidazol-1-yl)ethyl]-2-propenamide]: the “50% Reaction Threshold” value in the data set on Chung model rat (oral 1 mg/kg, measurement point 60 minute (action peak)) is reported as 10.58 ± 1.74* g; in the data set with Chung model rat (oral 10 mg/kg, measurement point 60 minute (action peak)), 13.58 ± 0.67* g.
